Measured values taken from PubChem BioAssay AID2060900 (Molecular Pharmacology Branch, DTP, NCI, 2025).

tested on: 521955-158-R2-J5-PDC complex spheroids, viability; experiment: Anticancer human tumor 521955-158-R2-J5-PDC patient-derived pancreatic carcinoma cell line growth inhibition [RAS]; conditions: curve of first compound; second compound 0.00316 µM
Method in brief: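 Multi-cell-type spheroids: tumor cells plus HUVEC endothelial cells and mesenchymal stem cells. RAS-pathway inhibitors were combined with targeted agents, each dosed in half-log steps down from clinical Cmax, or from 10 microM when Cmax was unknown.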
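Note: compound exposure lasted seven days before the viability read.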

SMILES | IC50 [µM]
CC1(O)CCCC1n1c(=O)c(C(F)F)cc2cnc(NC3CCN(S(C)(=O)=O)CC3)nc21 (stereo unspecified) + C=CC(=O)N1CCN(c2nc(OCC3CCCN3C)nc3c(F)c(-c4nc(N)cc(C)c4C(F)(F)F)c(Cl)cc23)C(C)C1 | 5.89
CCC(CC)c1cc(NC2CCC(N)C2)n2nccc2n1 (stereo unspecified) + C=CC(=O)N1CCN(c2nc(OCC3CCCN3C)nc3c(F)c(-c4nc(N)cc(C)c4C(F)(F)F)c(Cl)cc23)C(C)C1 | 1.95
CCN1CCN(Cc2ccc(Nc3ncc(F)c(-c4cc(F)c5nc(C)n(C(C)C)c5c4)n3)nc2)CC1 + C=CC(=O)N1CCN(c2nc(OCC3CCCN3C)nc3c(F)c(-c4nc(N)cc(C)c4C(F)(F)F)c(Cl)cc23)C(C)C1 | > 1
Cc1nc(N2CCC3(CC2)COC(C)C3N)c(CO)nc1Sc1ccnc(N)c1Cl (stereo unspecified) + C=CC(=O)N1CCN(c2nc(OCC3CCCN3C)nc3c(F)c(-c4nc(N)cc(C)c4C(F)(F)F)c(Cl)cc23)C(C)C1 | > 10
NC1c2ccccc2OC12CCN(c1cnc3c(N4CCCc5ncccc54)n[nH]c3n1)CC2 (stereo unspecified) + C=CC(=O)N1CCN(c2nc(OCC3CCCN3C)nc3c(F)c(-c4nc(N)cc(C)c4C(F)(F)F)c(Cl)cc23)C(C)C1 | > 10

same assay, conditions: curve of first compound; second compound 0.01 µM

SMILES | IC50 [µM]
CC1(O)CCCC1n1c(=O)c(C(F)F)cc2cnc(NC3CCN(S(C)(=O)=O)CC3)nc21 (stereo unspecified) + C=CC(=O)N1CCN(c2nc(OCC3CCCN3C)nc3c(F)c(-c4nc(N)cc(C)c4C(F)(F)F)c(Cl)cc23)C(C)C1 | 6.18
CCC(CC)c1cc(NC2CCC(N)C2)n2nccc2n1 (stereo unspecified) + C=CC(=O)N1CCN(c2nc(OCC3CCCN3C)nc3c(F)c(-c4nc(N)cc(C)c4C(F)(F)F)c(Cl)cc23)C(C)C1 | 2.1
CCN1CCN(Cc2ccc(Nc3ncc(F)c(-c4cc(F)c5nc(C)n(C(C)C)c5c4)n3)nc2)CC1 + C=CC(=O)N1CCN(c2nc(OCC3CCCN3C)nc3c(F)c(-c4nc(N)cc(C)c4C(F)(F)F)c(Cl)cc23)C(C)C1 | > 1
Cc1nc(N2CCC3(CC2)COC(C)C3N)c(CO)nc1Sc1ccnc(N)c1Cl (stereo unspecified) + C=CC(=O)N1CCN(c2nc(OCC3CCCN3C)nc3c(F)c(-c4nc(N)cc(C)c4C(F)(F)F)c(Cl)cc23)C(C)C1 | > 10
NC1c2ccccc2OC12CCN(c1cnc3c(N4CCCc5ncccc54)n[nH]c3n1)CC2 (stereo unspecified) + C=CC(=O)N1CCN(c2nc(OCC3CCCN3C)nc3c(F)c(-c4nc(N)cc(C)c4C(F)(F)F)c(Cl)cc23)C(C)C1 | > 10

same assay, conditions: curve of first compound; second compound 0.0316 µM

SMILES | IC50 [µM]
CC1(O)CCCC1n1c(=O)c(C(F)F)cc2cnc(NC3CCN(S(C)(=O)=O)CC3)nc21 (stereo unspecified) + C=CC(=O)N1CCN(c2nc(OCC3CCCN3C)nc3c(F)c(-c4nc(N)cc(C)c4C(F)(F)F)c(Cl)cc23)C(C)C1 | 6.07
CCC(CC)c1cc(NC2CCC(N)C2)n2nccc2n1 (stereo unspecified) + C=CC(=O)N1CCN(c2nc(OCC3CCCN3C)nc3c(F)c(-c4nc(N)cc(C)c4C(F)(F)F)c(Cl)cc23)C(C)C1 | 2.11
CCN1CCN(Cc2ccc(Nc3ncc(F)c(-c4cc(F)c5nc(C)n(C(C)C)c5c4)n3)nc2)CC1 + C=CC(=O)N1CCN(c2nc(OCC3CCCN3C)nc3c(F)c(-c4nc(N)cc(C)c4C(F)(F)F)c(Cl)cc23)C(C)C1 | > 1
Cc1nc(N2CCC3(CC2)COC(C)C3N)c(CO)nc1Sc1ccnc(N)c1Cl (stereo unspecified) + C=CC(=O)N1CCN(c2nc(OCC3CCCN3C)nc3c(F)c(-c4nc(N)cc(C)c4C(F)(F)F)c(Cl)cc23)C(C)C1 | > 10
NC1c2ccccc2OC12CCN(c1cnc3c(N4CCCc5ncccc54)n[nH]c3n1)CC2 (stereo unspecified) + C=CC(=O)N1CCN(c2nc(OCC3CCCN3C)nc3c(F)c(-c4nc(N)cc(C)c4C(F)(F)F)c(Cl)cc23)C(C)C1 | > 10

same assay, conditions: curve of first compound; second compound 0.1 µM

SMILES | IC50 [µM]
CC1(O)CCCC1n1c(=O)c(C(F)F)cc2cnc(NC3CCN(S(C)(=O)=O)CC3)nc21 (stereo unspecified) + C=CC(=O)N1CCN(c2nc(OCC3CCCN3C)nc3c(F)c(-c4nc(N)cc(C)c4C(F)(F)F)c(Cl)cc23)C(C)C1 | 6.24
CCC(CC)c1cc(NC2CCC(N)C2)n2nccc2n1 (stereo unspecified) + C=CC(=O)N1CCN(c2nc(OCC3CCCN3C)nc3c(F)c(-c4nc(N)cc(C)c4C(F)(F)F)c(Cl)cc23)C(C)C1 | 2.09
CCN1CCN(Cc2ccc(Nc3ncc(F)c(-c4cc(F)c5nc(C)n(C(C)C)c5c4)n3)nc2)CC1 + C=CC(=O)N1CCN(c2nc(OCC3CCCN3C)nc3c(F)c(-c4nc(N)cc(C)c4C(F)(F)F)c(Cl)cc23)C(C)C1 | > 1
Cc1nc(N2CCC3(CC2)COC(C)C3N)c(CO)nc1Sc1ccnc(N)c1Cl (stereo unspecified) + C=CC(=O)N1CCN(c2nc(OCC3CCCN3C)nc3c(F)c(-c4nc(N)cc(C)c4C(F)(F)F)c(Cl)cc23)C(C)C1 | > 10
NC1c2ccccc2OC12CCN(c1cnc3c(N4CCCc5ncccc54)n[nH]c3n1)CC2 (stereo unspecified) + C=CC(=O)N1CCN(c2nc(OCC3CCCN3C)nc3c(F)c(-c4nc(N)cc(C)c4C(F)(F)F)c(Cl)cc23)C(C)C1 | 10

same assay, conditions: curve of first compound; second compound 0.316 µM

SMILES | IC50 [µM]
CC1(O)CCCC1n1c(=O)c(C(F)F)cc2cnc(NC3CCN(S(C)(=O)=O)CC3)nc21 (stereo unspecified) + C=CC(=O)N1CCN(c2nc(OCC3CCCN3C)nc3c(F)c(-c4nc(N)cc(C)c4C(F)(F)F)c(Cl)cc23)C(C)C1 | 6.02
CCC(CC)c1cc(NC2CCC(N)C2)n2nccc2n1 (stereo unspecified) + C=CC(=O)N1CCN(c2nc(OCC3CCCN3C)nc3c(F)c(-c4nc(N)cc(C)c4C(F)(F)F)c(Cl)cc23)C(C)C1 | 2.14
CCN1CCN(Cc2ccc(Nc3ncc(F)c(-c4cc(F)c5nc(C)n(C(C)C)c5c4)n3)nc2)CC1 + C=CC(=O)N1CCN(c2nc(OCC3CCCN3C)nc3c(F)c(-c4nc(N)cc(C)c4C(F)(F)F)c(Cl)cc23)C(C)C1 | > 1
Cc1nc(N2CCC3(CC2)COC(C)C3N)c(CO)nc1Sc1ccnc(N)c1Cl (stereo unspecified) + C=CC(=O)N1CCN(c2nc(OCC3CCCN3C)nc3c(F)c(-c4nc(N)cc(C)c4C(F)(F)F)c(Cl)cc23)C(C)C1 | > 10
NC1c2ccccc2OC12CCN(c1cnc3c(N4CCCc5ncccc54)n[nH]c3n1)CC2 (stereo unspecified) + C=CC(=O)N1CCN(c2nc(OCC3CCCN3C)nc3c(F)c(-c4nc(N)cc(C)c4C(F)(F)F)c(Cl)cc23)C(C)C1 | > 10

same assay, conditions: curve of first compound; second compound 1 µM

SMILES | IC50 [µM]
CC1(O)CCCC1n1c(=O)c(C(F)F)cc2cnc(NC3CCN(S(C)(=O)=O)CC3)nc21 (stereo unspecified) + C=CC(=O)N1CCN(c2nc(OCC3CCCN3C)nc3c(F)c(-c4nc(N)cc(C)c4C(F)(F)F)c(Cl)cc23)C(C)C1 | 6.06
